The values below come from US12258424B2, “Polypeptides and compositions comprising the same” (priority 2020, dated 2025).

pIC50: −log10 of the molar value. Positions of bridges follow the written chain, without caps; N, C: chain ends. Residues, ends and D or L forms follow the SMILES beside them.

In data set [1] the target is T1, recombinant human PD-L1 ECD protein (Homo sapiens, UniProt Q9NZQ7).
T1 construct: against the recombinant human PD-L1 ECD protein were evaluated using SPR; purchased G&P Biosciences FCL0784B
T1 sequence (Q9NZQ7 19-238 limits assumed): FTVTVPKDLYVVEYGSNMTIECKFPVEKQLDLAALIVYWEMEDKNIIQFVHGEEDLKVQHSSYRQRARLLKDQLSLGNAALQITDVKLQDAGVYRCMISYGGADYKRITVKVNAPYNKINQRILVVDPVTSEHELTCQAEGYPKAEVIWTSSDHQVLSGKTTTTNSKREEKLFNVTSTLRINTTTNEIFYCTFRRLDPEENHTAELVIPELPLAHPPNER
As to the kind of experiment: SPR binding kinetics and affinity to immobilized human PD-L1. The following applies: read-out: Ka. The procedure:
In such aspects, the equilibrium dissociate constant KD value against recombinant human PD-L1 can be determined according to an KD to PD-L1 SPR Assay. The KD to PD-L1 SPR Assay can include the use of Surface Plasmon Resonance (SPR), such as the B14500, Biosensing Instrument, and can include the following procedures. The PD-L1 protein can be diluted to 10 μg/mL with sodium acetate buffer (pH 5.0, GE Healthcare, PA) and covalently coated onto a CM5 sensor chip (CM Dextran Sensor Chip, Biosensing Instrument) using the standard Amine Coupling Kit (GE Healthcare, PA). Approximately 6500 RU of PD-L1 protein are immobilized onto the chip. A second channel is used as a reference. HBS-EP+ buffer (GE Healthcare) can be employed at a flow rate of 60 μL/min. A series of concentrations of each peptide (15, 30, 60, 125, 250, 500, 1000, 5000 and 10,000 nM) is prepared in HBS-EP+ running buffer to obtain the equilibrium dissociation constant (KD) values of the peptides. The CM5 sensor chip can be regenerated with 10 mM NaOH for 20 s. The results can be analyzed using the software of Bi data analysis software.
Evaluation of Binding Kinetics and Affinity By Surface Plasmon Resonance (SPR). Binding affinities of the PD-L1 specific peptides for human PD-L1 protein were determined by SPR (B14500, Biosensing Instrument). PD-L1 protein was diluted to 10 μg/mL with sodium acetate buffer (pH 5.0, GE Healthcare, PA) and covalently coated onto a CM5 sensor chip (CM Dextran Sensor Chip, Biosensing Instrument) using the standard Amine Coupling Kit (GE Healthcare, PA). Approximately 6500 RU of PD-L1 protein were immobilized onto the chip. A second channel was used as a reference. HBS-EP+ buffer (GE Healthcare) was employed at a flow rate of 60 μL/min. A series of concentrations of each peptide (15, 30, 60, 125, 250, 500, 1000, 5000 and 10,000 nM) were prepared in HBS-EP+ running buffer to obtain the equilibrium dissociation constant (KD) values of the peptides. The CM5 sensor chip was regenerated with 10 mM NaOH for 20 seconds. The results were analyzed using the software of Bi data analysis software. Binding affinities of the anti-PD-L1 peptides to BSA was also assessed following the procedure for human PD-L1.

For a further data set, the system named is DU145 cancer cell. Format: cell-based, human. The note with it: DU-145 cancer cells. As to the method: (§1) Ninety-six-well plates were coated with 100 ng of PD-L1 protein (G&P Biosciences, human PD-L1 ECD, cat #FCL0784B. mouse PD-L1, cat #FCL3502B) and later blocked with 2% BSA for 2 hours at room temperature. Various concentrations of peptides were loaded into the wells and incubated for 1 hour at room temperature. […] Streptavidin-HRP (R & D systems) and chromogenic substrate were added into the wells. OD450 was then recorded and referenced to OD540.
The blocking efficiency of the anti-PD-L1 peptides at 10 μM (FIG. 2c). […] The IC50 of each peptide was also determined using recombinant human PD-L1 protein and DU-145 cancer cells.

A further data set concerns 4T1 cancer cell. It counts as cell-based, mouse.
In data set [2] the target is human PD-L1/CD80 interaction (Homo sapiens, UniProt Q9NZQ7). Description: Blockade of the CD80/PD-L1 interaction. It counts as binding. The note with it: at 10 μM, FIG. 8a.
Sequence of human PD-L1/CD80 interaction (Q9NZQ7 19-238 limits assumed): as above
For data set [3], the system named is Jurkat T cells co-cultured with DU-145 cancer cells. Description: Jurkat T cell proliferation in co-culture with DU-145 cells (CellTiter-Glo). Format: cell-based, human. The note with it: peptide 5 μM, 24 hours. As to the method:
Proliferation and Apoptosis Assays. […] Briefly, 3×10^4 Jurkat T cells were cultured alone or co-cultured with 1.5×10^5 DU-145 cancer cells in a 24-well plate for the proliferation assay. For the apoptosis assay, 6×10^4 Jurkat T cells were cultured alone or co-cultured with 3×10^5 DU-145 cancer cells in a 6-well plate. After incubation with the anti-PD-L1 peptides (5 μM) or anti-PD-L1 antibody (1 μM) for 24 hours, Jurkat T cells were harvested from the supernatant. Proliferation of Jurkat cells was determined using the CellTiter-Glo luminescent cell viability assay (Promega, WI), and apoptosis of the cells were determined using the Dead Cell Apoptosis Kit with Annexin V Alexa Fluor® 488 and Propidium Iodide (Thermo-Fisher Scientific, Pittsburgh, PA) as we described before^21.
On the technique in general: ATP-based viability assays read luminescence as a measure of living cells.

The target in data set [4] is T2, mPD-L1 (Mus musculus, UniProt Q9EP73). As to the kind of experiment: Blockade of the mouse PD-1/PD-L1 interaction, mouse PD-L1 protein. It counts as binding. The arrangement: purchased G&P Biosciences FCL3502B (PD-L1). The following applies: mouse PD-L1 protein. As to the method:
as §1
Target sequence in this assay (Q9EP73 19-239 limits assumed): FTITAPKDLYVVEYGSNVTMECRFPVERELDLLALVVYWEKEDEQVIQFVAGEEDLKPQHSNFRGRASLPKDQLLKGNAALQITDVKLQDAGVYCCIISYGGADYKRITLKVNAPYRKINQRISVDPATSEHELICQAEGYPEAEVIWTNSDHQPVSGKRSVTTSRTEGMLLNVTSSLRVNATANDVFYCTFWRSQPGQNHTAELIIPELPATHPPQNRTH

In data set [5] the target is T3, hPD-L1 (Homo sapiens, UniProt Q9NZQ7). As to the kind of experiment: Blockade of the PD-1/PD-L1 interaction, plate coated with human PD-L1 protein. Format: binding. More on the design: PD-L1 protein (G&P Biosciences, human PD-L1 ECD, cat #FCL0784B); purchased G&P Biosciences FCL0784B (PD-L1). The procedure: as §1
T3 sequence (Q9NZQ7 19-238 limits assumed): as the sequence (Q9NZQ7 19-238 limits assumed) above
Data set [6] in a line: Proteolytic stability in 50% human serum (LC-MS). Format: in vitro ADME. The procedure:
Half-life in 50% human serum. Proteolytic stability of the peptides was investigated using LC-MS. Solutions of the anti-PD-L1 peptides were incubated with 50% human serum at […], aliquots were taken at specific time points for processing and subsequent LC-MS analysis.

The nature of data set [7]: Cell viability of DU145 cells (CellTiter-Glo). Format: cell-based. The note with it: human, read-out: % cell viability after incubation with 50 μM peptide. As to the method:
% cell viability after incubation with 50 μM peptide. White 96-well plates with clear bottom (Corning, RFE 3610) were seeded with DU145 cells at a density of 1×10^4 cells/well and incubated in a humidified atmosphere at 37° C. with a supply of 5% CO2. After 12 h, various peptide concentrations were added to the cells and incubated for 48 h. CellTiter-Glo kit (Promega, WI) was employed in the cell viability analysis by following the manufacturer's instructions.

For another data set, the target named is PD1/PD-L1 (Homo sapiens, UniProt Q9NZQ7). As to the kind of experiment: IC50 and blocking efficiency against PD1/PD-L1 (Table 5). It counts as binding. As to the method: (§2) Blocking efficiency at 10 μM/IC50 against human and mouse PD1/PD-L1 (ELISA). […] 100 ng of recombinant human PD-L1 protein was coated in 96-well plates at 4° C. for 16 h with shaking over an orbital shaker. Unbound protein was removed by washing twice with PBS (pH 7.2-7.4), 2% BSA was added for 1.5 h at 37° C. to block the plate. Specific concentrations of the peptides were dispensed into the appropriate wells and incubated for 2 h at 37° C. […] This was followed by the addition of streptavidin-HRP and chromogenic substrate (R & D systems). The color reaction was terminated with 2N H2SO4, absorbance was recorded at OD450 and referenced to OD540.
Sequence of PD1/PD-L1 (Q9NZQ7 19-238 limits assumed): as above

The target in data set [8] is T3, hPD-L1. As to the kind of experiment: PD-1/PD-L1 inhibitor screening ELISA, human proteins. It counts as binding. More on the design: purchased Acro Biosystems EP-101. As to the method:
as §2
A general note: In an ELISA, binding on a coated surface is turned into a signal by an enzyme label.

Data set [9] addresses T3, hPD-L1. As to the kind of experiment: Competitive SPR blocking of PD-L1 binding to immobilized PD-1. The arrangement: purchased Acro Biosystems EP-101. As to the method:
% Blocking efficiency at 10 μM (Competitive SPR)/IC50 (competitive SPR) hPD-L1. BI-4500A SPR and a CM-5 sensor chip pre-functionalized with streptavidin (Biosensing Instrument Inc., Tempe, Ariz.) were employed for the SPR analysis. […] Different concentrations of each peptide were incubated with human PD-L1 (AcroBiosystems, cat #EP-101) prior to injection. Human PD-L1 alone was also injected to serve as a control. […] Data was analyzed with SPR Data Analysis Version 3.8.4 (Biosensing Instrument Inc., Tempe, AZ).

Data set [10] deals with T2, mPD-L1. Description: PD-1/PD-L1 blocking ELISA, mouse proteins. It counts as binding. More on the design: purchased Acro Biosystems PD1-M5220 (PD-L1). As to the method: as §2
Target sequence in this assay (Q9EP73 19-238 limits assumed): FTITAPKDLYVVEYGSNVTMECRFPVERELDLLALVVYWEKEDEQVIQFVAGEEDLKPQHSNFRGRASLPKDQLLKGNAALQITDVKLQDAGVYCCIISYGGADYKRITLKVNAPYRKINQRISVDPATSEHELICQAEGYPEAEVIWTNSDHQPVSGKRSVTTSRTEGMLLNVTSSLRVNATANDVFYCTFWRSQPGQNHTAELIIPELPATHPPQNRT
Another data set concerns IL-6. The note with it: cancer patients, Herbst et al. 2014; cited from earlier work.

The term pIC50 denotes the negative decadic logarithm of the IC50, by convention in mol/L. Low readings indicate a high IC50, high ones a low IC50. As to `C[C@H](NC(=O)[C@H](CCC(N)=O)NC(=O)[C@H](CC(N)=O)NC(=O)[C@H](C)NC(=O)[C@H](Cc1c[nH]cn1)NC(=O)[C@@H]1CCCN1C(=O)[C@H](CCCNC(=N)N)NC(=O)[C@H](Cc1ccccc1)NC(=O)[C@@H]1CCCN1C(=O)[C@H](Cc1ccc(O)cc1)NC(=O)[C@@H](N)Cc1c[nH]cn1)C(=O)N[C@@H](CO)C(=O)O` [CLP001] (H-HYPFRPHANQAS-OH; N-terminus and C-terminus assumed), the kon in [1] was determined as 5190 M⁻¹ s⁻¹. Further, the “Blocking Efficiency (%)” value is 0% with DU145 cancer cell, 35% in the data set with 4T1 cancer cell (4T1 cancer cell), 34% at mPD-L1 [4] and 0% at hPD-L1 [5] (human PD-L1 protein). The pIC50 in the data set with 4T1 cancer cell (2 h) is 6.04. Further, the “Blocking efficiency against CD80/PD-L1 interaction” value in data set [2] was “approximately 17%”. In addition, in data set [3], the “Effect on Jurkat T cell proliferation” value is “did not observe the same effect”. Besides, the “Blocking of the human PD-1/PD-L1 interaction (in words)” value at hPD-L1 [5] (peptides at 10 μM, FIG. 2c) is “did not block”.
For orientation: half-life means how long it takes for the measured level to halve. A low value points to rapid decline. What is called viability is the share of living cells, or the viability signal relative to a control. As to `CC(C)C[C@@H]1NC(=O)[C@H](CC(N)=O)NC(=O)[C@H](Cc2c[nH]c3ccccc23)NC(=O)[C@H]([C@@H](C)O)NC(=O)[C@H](Cc2ccc(O)cc2)NC(=O)[C@H](Cc2ccc(O)cc2)NC(=O)[C@H](CO)NC(=O)[C@H](CCCNC(=N)N)NC(=O)[C@H](Cc2c[nH]cn2)NC(=O)[C@@H](N)CSSC[C@@H](C(=O)O)NC(=O)[C@H](CC(N)=O)NC1=O` [CLP2C14] (H-CHRSYYTWNLNC-OH; disulfide 1-12; N-terminus and C-terminus assumed), the half-life in data set [6] is 38.1 min. The viability at 48 h, 50 µM in data set [7] was approximately 100%. Further, the “% Blocking efficiency at 10 μM” value at PD1/PD-L1 amounted to 75%. For the same compound, the “% Blocking efficiency at 10 μM (ELISA) hPD-L1” value on hPD-L1 [8] is on record as 75.0%. For the same compound, on hPD-L1 [9], the “% Blocking efficiency at 10 μM (Competitive SPR) hPD-L1” value is 86.8%. Further, the “% Blocking efficiency at 10 μM (ELISA) mPD-L1” value at mPD-L1 [10] worked out at 89.3%.
Consider `CC(C)C[C@H](NC(=O)[C@H](CC(N)=O)NC(=O)[C@H](Cc1c[nH]c2ccccc12)NC(=O)[C@@H]1CSSC[C@H](N)C(=O)N[C@@H](Cc2c[nH]cn2)C(=O)N[C@@H](CCCNC(=N)N)C(=O)N[C@@H](CO)C(=O)N[C@@H](Cc2ccc(O)cc2)C(=O)N[C@@H](Cc2ccc(O)cc2)C(=O)N1)C(=O)N[C@@H](CC(N)=O)C(=O)N[C@H](C(=O)O)[C@@H](C)O` [CLP2C21] (H-CHRSYYCWNLNT-OH; disulfide 1-7; N-terminus and C-terminus assumed), for which the half-life in data set [6] stood at 70.8 min. Besides, in [7], the viability at 48 h, 50 µM is approximately 100%. In addition, the “% Blocking efficiency at 10 μM” value on PD1/PD-L1 was 78%. For the same compound, on hPD-L1 [8], the “% Blocking efficiency at 10 μM (ELISA) hPD-L1” value was 85.9%. In addition, the “% Blocking efficiency at 10 μM (Competitive SPR) hPD-L1” value on hPD-L1 [9] came to 99.4%. Moreover, on mPD-L1 [10], the “% Blocking efficiency at 10 μM (ELISA) mPD-L1” value is 82.6%.
In the case of “MPDL3280A: anti-PD-L1 antibody MPDL3280A (Herbst et al. 2014)”, in the data set with IL-6, the “Expression of IL-6 in the blood” value is given as “reduced”.
